Laboratory results: PubChem BioAssay (NCI)
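All cell lines were grown in 96-well plates and treated with compound for 48 hours. TGI is the concentration that stops growth completely.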

Experiments:
Test in all cases: inhibition of tumour cell growth, NCI panel, 48 h
MOLT-4 leukemia = tested on: MOLT-4 leukemia
SNB-19 CNS = tested on: SNB-19 CNS
M14 melanoma = tested on: M14 melanoma
KM12 colon = tested on: KM12 colon
SR leukemia = tested on: SR leukemia
UO-31 renal = tested on: UO-31 renal
RPMI-8226 leukemia = tested on: RPMI-8226 leukemia
SK-MEL-2 melanoma = tested on: SK-MEL-2 melanoma
COLO 205 colon = tested on: COLO 205 colon
SK-MEL-5 melanoma = tested on: SK-MEL-5 melanoma
IGROV1 ovarian = tested on: IGROV1 ovarian
UACC-257 melanoma = tested on: UACC-257 melanoma
CCRF-CEM leukemia = tested on: CCRF-CEM leukemia
786-0 renal = tested on: 786-0 renal
HOP-62 NSCLC = tested on: HOP-62 NSCLC
NCI-H23 lung = tested on: NCI-H23 lung
CAKI-1 renal = tested on: CAKI-1 renal
ACHN renal = tested on: ACHN renal
SW-620 colon = tested on: SW-620 colon
SK-MEL-28 melanoma = tested on: SK-MEL-28 melanoma
OVCAR-5 ovarian = tested on: OVCAR-5 ovarian
SF-268 CNS = tested on: SF-268 CNS
MDA-MB-435 = tested on: MDA-MB-435
DU-145 prostate = tested on: DU-145 prostate
MCF7 breast = tested on: MCF7 breast
HCT-15 colon = tested on: HCT-15 colon
HL-60(TB) leukemia = tested on: HL-60(TB) leukemia
HS 578T breast = tested on: HS 578T breast
OVCAR-3 ovarian = tested on: OVCAR-3 ovarian
SK-OV-3 ovarian = tested on: SK-OV-3 ovarian
BT-549 breast = tested on: BT-549 breast
NCI-H226 lung = tested on: NCI-H226 lung
SF-539 CNS = tested on: SF-539 CNS
HCT-116 colon = tested on: HCT-116 colon
UACC-62 melanoma = tested on: UACC-62 melanoma
HOP-92 NSCLC = tested on: HOP-92 NSCLC
K-562 leukemia = tested on: K-562 leukemia
EKVX NSCLC = tested on: EKVX NSCLC
OVCAR-4 ovarian = tested on: OVCAR-4 ovarian
RXF 393 renal = tested on: RXF 393 renal
NCI-H522 lung = tested on: NCI-H522 lung
HCC-2998 colon = tested on: HCC-2998 colon
MDA-N = tested on: MDA-N
NCI/ADR-RES ovarian = tested on: NCI/ADR-RES ovarian
SN12C renal = tested on: SN12C renal
SF-295 CNS = tested on: SF-295 CNS
TK-10 renal = tested on: TK-10 renal
MDA-MB-231 breast = tested on: MDA-MB-231 breast
PC-3 prostate = tested on: PC-3 prostate
A549 NSCLC = tested on: A549 NSCLC
HT29 colon = tested on: HT29 colon
OVCAR-8 ovarian = tested on: OVCAR-8 ovarian
NCI-H460 lung = tested on: NCI-H460 lung
T-47D breast = tested on: T-47D breast
LOX IMVI melanoma = tested on: LOX IMVI melanoma
U251 CNS = tested on: U251 CNS
MALME-3M melanoma = tested on: MALME-3M melanoma
SNB-75 CNS = tested on: SNB-75 CNS

SMILES: COc1ccccc1/C=C1\Sc2scc(-c3ccc(O)c(O)c3)[n+]2C1=O
- TGI (MOLT-4 leukemia): 38.9 µM
- TGI (SNB-19 CNS): > 100 µM
- TGI (M14 melanoma): 30.6 µM
- TGI (KM12 colon): > 100 µM
- TGI (SR leukemia): 60.3 µM
- TGI (UO-31 renal): 43.2 µM
- TGI (RPMI-8226 leukemia): 45.2 µM
- TGI (SK-MEL-2 melanoma): 64.1 µM
- TGI (COLO 205 colon): 37.2 µM
- TGI (SK-MEL-5 melanoma): 44.1 µM
- TGI (IGROV1 ovarian): 34.2 µM
- TGI (UACC-257 melanoma): 70.5 µM
- TGI (CCRF-CEM leukemia): 8.64 µM
- TGI (786-0 renal): 29.2 µM
- TGI (HOP-62 NSCLC): > 100 µM
- TGI (NCI-H23 lung): 73.5 µM
- TGI (CAKI-1 renal): 29 µM
- TGI (ACHN renal): 31 µM
- TGI (SW-620 colon): 31.6 µM
- TGI (SK-MEL-28 melanoma): 33.1 µM
- TGI (OVCAR-5 ovarian): 85.7 µM
- TGI (SF-268 CNS): > 100 µM
- TGI (MDA-MB-435): 86.2 µM
- TGI (DU-145 prostate): 57.4 µM
- TGI (MCF7 breast): 91.5 µM
- TGI (HCT-15 colon): 30.6 µM
- TGI (HL-60(TB) leukemia): 7.11 µM
- TGI (HS 578T breast): > 100 µM
- TGI (OVCAR-3 ovarian): 36.7 µM
- TGI (SK-OV-3 ovarian): 97 µM
- TGI (BT-549 breast): 32.6 µM
- TGI (NCI-H226 lung): > 100 µM
- TGI (SF-539 CNS): 55.8 µM
- TGI (HCT-116 colon): 31.3 µM
- TGI (UACC-62 melanoma): 32.5 µM
- TGI (HOP-92 NSCLC): 38.4 µM
- TGI (K-562 leukemia): 42.1 µM
- TGI (EKVX NSCLC): > 100 µM
- TGI (OVCAR-4 ovarian): 81.3 µM
- TGI (RXF 393 renal): 56.9 µM
- TGI (NCI-H522 lung): 24.8 µM
- TGI (HCC-2998 colon): 31.6 µM
- TGI (MDA-N): 67.1 µM
- TGI (NCI/ADR-RES ovarian): > 100 µM
- TGI (SN12C renal): 67.5 µM
- TGI (SF-295 CNS): > 100 µM
- TGI (TK-10 renal): > 100 µM
- TGI (MDA-MB-231 breast): 45 µM
- TGI (PC-3 prostate): > 100 µM
- TGI (A549 NSCLC): > 100 µM
- TGI (HT29 colon): 41.4 µM
- TGI (OVCAR-8 ovarian): > 100 µM
- TGI (NCI-H460 lung): 38.3 µM
- TGI (T-47D breast): 42.5 µM
- TGI (LOX IMVI melanoma): 33.5 µM
- TGI (U251 CNS): > 100 µM

SMILES: COc1cc(C2SC(N)=Nc3c2c(C)nn3C(=O)c2ccc(Cl)cc2)cc(OC)c1OC (stereo not drawn)
- TGI (MOLT-4 leukemia): > 10 µM
- TGI (SNB-19 CNS): > 10 µM
- TGI (M14 melanoma): > 10 µM
- TGI (KM12 colon): > 10 µM
- TGI (SR leukemia): > 10 µM
- TGI (RPMI-8226 leukemia): > 10 µM
- TGI (SK-MEL-2 melanoma): > 10 µM
- TGI (COLO 205 colon): > 10 µM
- TGI (SK-MEL-5 melanoma): > 10 µM
- TGI (IGROV1 ovarian): > 10 µM
- TGI (UACC-257 melanoma): > 10 µM
- TGI (CCRF-CEM leukemia): > 10 µM
- TGI (786-0 renal): > 10 µM
- TGI (HOP-62 NSCLC): > 10 µM
- TGI (NCI-H23 lung): > 10 µM
- TGI (MALME-3M melanoma): > 10 µM
- TGI (CAKI-1 renal): > 10 µM
- TGI (ACHN renal): > 10 µM
- TGI (SW-620 colon): > 10 µM
- TGI (SK-MEL-28 melanoma): > 10 µM
- TGI (OVCAR-5 ovarian): > 10 µM
- TGI (SF-268 CNS): > 10 µM
- TGI (MDA-MB-435): > 10 µM
- TGI (DU-145 prostate): > 10 µM
- TGI (MCF7 breast): > 10 µM
- TGI (HCT-15 colon): > 10 µM
- TGI (HL-60(TB) leukemia): > 10 µM
- TGI (HS 578T breast): > 10 µM
- TGI (OVCAR-3 ovarian): > 10 µM
- TGI (SK-OV-3 ovarian): > 10 µM
- TGI (BT-549 breast): > 10 µM
- TGI (NCI-H226 lung): > 10 µM
- TGI (SF-539 CNS): > 10 µM
- TGI (HCT-116 colon): > 10 µM
- TGI (UACC-62 melanoma): > 10 µM
- TGI (HOP-92 NSCLC): > 10 µM
- TGI (K-562 leukemia): > 10 µM
- TGI (EKVX NSCLC): > 10 µM
- TGI (OVCAR-4 ovarian): > 10 µM
- TGI (RXF 393 renal): > 10 µM
- TGI (NCI-H522 lung): > 10 µM
- TGI (HCC-2998 colon): > 10 µM
- TGI (MDA-N): > 10 µM
- TGI (NCI/ADR-RES ovarian): > 10 µM
- TGI (SN12C renal): > 10 µM
- TGI (SF-295 CNS): > 10 µM
- TGI (TK-10 renal): > 10 µM
- TGI (SNB-75 CNS): > 10 µM
- TGI (MDA-MB-231 breast): > 10 µM
- TGI (PC-3 prostate): > 10 µM
- TGI (A549 NSCLC): > 10 µM
- TGI (HT29 colon): > 10 µM
- TGI (OVCAR-8 ovarian): > 10 µM
- TGI (NCI-H460 lung): > 10 µM
- TGI (T-47D breast): > 10 µM
- TGI (LOX IMVI melanoma): > 10 µM
- TGI (U251 CNS): > 10 µM

SMILES: COC1CC(OC2C(C)OC(OC3C(C)OC(OC4C(C)OC(O[C@H]5CC[C@@]6(C)C(=CC[C@]7(O)[C@@H]6C[C@@H](OC(=O)/C=C(\C)C(C)C)[C@@]6(C)[C@]7(O)CC[C@@]6(O)C(C)=O)C5)CC4OC)CC3OC)CC2OC)OC(C)C1O (stereo partly drawn)
- TGI (MOLT-4 leukemia): > 12.5 µM
- TGI (SNB-19 CNS): > 12.5 µM
- TGI (M14 melanoma): > 12.5 µM
- TGI (KM12 colon): > 12.5 µM
- TGI (SR leukemia): > 12.5 µM
- TGI (UO-31 renal): > 12.5 µM
- TGI (RPMI-8226 leukemia): > 12.5 µM
- TGI (SK-MEL-2 melanoma): > 12.5 µM
- TGI (COLO 205 colon): > 12.5 µM
- TGI (SK-MEL-5 melanoma): > 12.5 µM
- TGI (IGROV1 ovarian): > 12.5 µM
- TGI (UACC-257 melanoma): > 12.5 µM
- TGI (CCRF-CEM leukemia): > 12.5 µM
- TGI (786-0 renal): > 12.5 µM
- TGI (HOP-62 NSCLC): > 12.5 µM
- TGI (NCI-H23 lung): > 12.5 µM
- TGI (MALME-3M melanoma): > 12.5 µM
- TGI (CAKI-1 renal): > 12.5 µM
- TGI (ACHN renal): > 12.5 µM
- TGI (SW-620 colon): > 12.5 µM
- TGI (OVCAR-5 ovarian): > 12.5 µM
- TGI (SF-268 CNS): > 12.5 µM
- TGI (MDA-MB-435): > 12.5 µM
- TGI (DU-145 prostate): > 12.5 µM
- TGI (MCF7 breast): > 12.5 µM
- TGI (HCT-15 colon): > 12.5 µM
- TGI (HL-60(TB) leukemia): > 12.5 µM
- TGI (HS 578T breast): > 12.5 µM
- TGI (OVCAR-3 ovarian): > 12.5 µM
- TGI (SK-OV-3 ovarian): > 12.5 µM
- TGI (BT-549 breast): > 12.5 µM
- TGI (NCI-H226 lung): > 12.5 µM
- TGI (SF-539 CNS): > 12.5 µM
- TGI (HCT-116 colon): > 12.5 µM
- TGI (UACC-62 melanoma): > 12.5 µM
- TGI (HOP-92 NSCLC): > 12.5 µM
- TGI (K-562 leukemia): > 12.5 µM
- TGI (EKVX NSCLC): > 12.5 µM
- TGI (OVCAR-4 ovarian): > 12.5 µM
- TGI (NCI-H522 lung): > 12.5 µM
- TGI (HCC-2998 colon): > 12.5 µM
- TGI (MDA-N): > 12.5 µM
- TGI (NCI/ADR-RES ovarian): > 12.5 µM
- TGI (SN12C renal): > 12.5 µM
- TGI (SF-295 CNS): > 12.5 µM
- TGI (TK-10 renal): > 12.5 µM
- TGI (SNB-75 CNS): > 12.5 µM
- TGI (MDA-MB-231 breast): > 12.5 µM
- TGI (PC-3 prostate): > 12.5 µM
- TGI (A549 NSCLC): > 12.5 µM
- TGI (HT29 colon): > 12.5 µM
- TGI (OVCAR-8 ovarian): > 12.5 µM
- TGI (T-47D breast): > 12.5 µM
- TGI (LOX IMVI melanoma): > 12.5 µM
- TGI (U251 CNS): > 12.5 µM
